Measured values published in article PMC9943626, “CS27109, A Selective Thyroid Hormone Receptor-β Agonist Alleviates Metabolic-Associated Fatty Liver Disease in Murine Models” (International Journal of Endocrinology, 2023).

What was measured:
HFD SD rat model = test: HFD SD rat model, biochemical, organ weight ratio, liver lipid and liver pathology; assay type: in vivo; conditions: for H/B (heart/body weight ratio): model 0.24 ± 0.02, normal 0.28 ± 0.02; for L/B (liver/body weight ratio): model 5.1 ± 0.75, normal 2.8 ± 0.26
Method: SD rat study: 58 SD rats ♂ aged 5–6 weeks were purchased from Beijing Huafukang Biotechnology Co., Ltd. 9 animals were kept with a food control diet as normal control, and the other 49 animals were fed 40% fat, 1.25% cholesterol and 0.5% sodium cholate (HFD, D12109C, SYSE BIO, Changzhou, China) as a model group. […] Animals in the normal and model groups were given solvent by oral gavage. All drugs, including solvent, were administered consecutively for 4 weeks and once a day. After sacrifice, blood was collected and serum was isolated for the AST, ALT, TG, TC, LDL-c, and HDL-c test, and livers and hearts were weighed to calculate the liver weight ratio and the heart weight ratio, respectively. The right lobe of the liver of each rat was harvested for the TG and TC test (A110-1-1 and A111-1-1, Nanjing Jiancheng Institute of Bioengineering, Nanjing, China) according to the manufacturer's instructions. The left lobe of the liver was collected for hematoxylin-eosin staining (H and E staining) to quantify liver steatosis, inflammation, and ballooning.
(§1) The liver samples were fixed in 10% formalin and embedded in paraffin using standard methods. The 4 μm paraffin sections were then assessed for liver histology by H and E staining and liver fibrosis by sirius red staining. The stained sections were panoramic scanned with a NanoZoomer Digital Pathology scanner (S210, Hamamatsu, Japan), and then observed with different visual fields at different magnifications, and scored for different liver lobes in the sections. The total NAS score represents the sum of the scores for steatosis (0–3), lobular inflammation (0–3), and ballooning (0–2), and ranges from 0–8 [30]. VIS7.0 software was used to analyze the area of liver fibrosis in the panoramic scanning SR staining sections, and the percentage of liver fibrosis area in the whole section area was calculated.

WD + CCL4 mouse model = test: WD + CCL4 mouse model, biochemical, liver weight ratio and liver pathology; assay type: in vivo, C57/B6 mouse; conditions: for LDL-c / TG / HDL-c / TC / CK activity / AST / ALT: WD + CCL4 mouse serum; for LDL-c / TG / HDL-c / TC / CK activity / AST / ALT / L/B (liver/body weight ratio): mean ± SD; for LDL-c: model 1.1 ± 0.35, normal 0.43 ± 0.04; for TG: model 1.2 ± 0.34, normal 0.91 ± 0.14; for HDL-c: model 1.5 ± 0.25, normal 2.0 ± 0.08; for TC: model 4.1 ± 0.97, normal 3.0 ± 0.10; for CK activity: model 345 ± 268, normal 334 ± 193; for AST: model 10245 ± 4955, normal 116 ± 71; for ALT: model 14003 ± 4205, normal 54 ± 15; for L/B (liver/body weight ratio): model 3.5 ± 0.27, normal 3.5 ± 0.27
Method: C57/B6 mouse study: 61 C57/B6 mice ♂ aged 6–7 weeks were purchased from Beijing Vital River Laboratory Animal Technology Co., Ltd. Six animals were kept with a chow diet as normal control, and the other 55 animals were fed 60% fat diet (Western diet, D12492, Research diet) as the model group. […] Animals in the normal and model groups were given solvent by oral gavage. All drugs, including solvent, were administered consecutively for 4 weeks and once a day. After sacrifice, blood was collected and serum was isolated for the AST, ALT, TG, TC, LDL-c, HDL-c, and CK tests, and the livers were weighed to calculate the liver weight ratio. The left lobe of the liver of each mouse was collected for hematoxylin-eosin staining (H and E staining) and sirius red staining.
as §1

[1] = Observation of diarrhea in treated animals; assay type: in vivo, rodents; conditions: animal studies
[2] = HFD SD rat, 5 mg/kg (L) oral once a day 4 weeks, mean ± SD
[3] = HFD SD rat, 15 mg/kg (CS27109-M, MGL-3196) oral once a day 4 weeks, mean ± SD
[4] = HFD SD rat, 45 mg/kg (H) oral once a day 4 weeks, mean ± SD
[5] = 3 mg/kg (L) oral once a day 4 weeks
[6] = 10 mg/kg (CS27109-M, MGL-3196) oral once a day 4 weeks
[7] = 30 mg/kg (H) oral once a day 4 weeks
[8] = WD + CCL4 mouse, 4 weeks, MGL3196 10 mg/kg, CS27109 high-dose (30 mg/kg), vs model

`N#Cc1nn(-c2cc(Br)c(Oc3n[nH]c(=O)c4ccccc34)c(Br)c2)c(=O)[nH]c1=O` [CS27109] showed an HDL-c (HFD SD rat model; HFD SD rat serum, 45 mg/kg (H) oral once a day 4 weeks, mean ± SD, model 1.2 ± 0.44, normal 1.1 ± 0.13) of 1.0 ± 0.30 mmol/L, an LDL-c (HFD SD rat model; HFD SD rat serum, 45 mg/kg (H) oral once a day 4 weeks, mean ± SD, model 9.7 ± 6.1, normal 0.28 ± 0.06) of 0.59 ± 0.32 mmol/L and a TC (HFD SD rat model; HFD SD rat serum, 45 mg/kg (H) oral once a day 4 weeks, mean ± SD, model 20 ± 13, normal 1.5 ± 0.20) of 2.3 ± 0.65 mmol/L. For the same molecule, the ALT (HFD SD rat model; HFD SD rat serum, 45 mg/kg (H) oral once a day 4 weeks, mean ± SD, model 166 ± 95, normal 32 ± 6.8) was 89 ± 50 U/L, the AST (HFD SD rat model; HFD SD rat serum, 45 mg/kg (H) oral once a day 4 weeks, mean ± SD, model 365 ± 212, normal 103 ± 21) was 253 ± 131 U/L and the “liver steatosis score (H and E)” value (HFD SD rat model; HFD SD rat, 4 weeks, CS27109 5-45 mg/kg dose-dependent, MGL3196 15 mg/kg, vs model) was “lessened steatosis”. The “liver inflammation score (H and E)” value (HFD SD rat model; HFD SD rat, 4 weeks, CS27109 5-45 mg/kg, MGL3196 15 mg/kg, vs model) was “dose-dependently reduced liver inflammation, but without a significant effect”, the NAS score (HFD SD rat model; HFD SD rat, 4 weeks, high dose CS27109 (45 mg/kg) only, vs model) was “decreased the NAS score” and the “H/B (heart/body weight ratio)” value (HFD SD rat model; [2]) was 0.27 ± 0.03%. The “L/B (liver/body weight ratio)” value (HFD SD rat model; [2]) was 4.0 ± 0.52 %, the “H/B (heart/body weight ratio)” value (HFD SD rat model; [3]) was 0.28 ± 0.02 % and the “L/B (liver/body weight ratio)” value (HFD SD rat model; [3]) was 4.1 ± 0.56 %. The “H/B (heart/body weight ratio)” value (HFD SD rat model; [4]) was 0.27 ± 0.02%, the “L/B (liver/body weight ratio)” value (HFD SD rat model; [4]) was 3.9 ± 0.54 % and the LDL-c (WD + CCL4 mouse model; [5]) was 0.40 ± 0.10 mmol/L. The TG (WD + CCL4 mouse model; [5]) was 1.2 ± 0.34 mmol/L, the HDL-c (WD + CCL4 mouse model; [5]) was 0.85 ± 0.24 mmol/L and the TC (WD + CCL4 mouse model; [5]) was 2.3 ± 0.40 mmol/L. It also gave a CK activity (WD + CCL4 mouse model; [5]) of 331 ± 386 U/L, an AST (WD + CCL4 mouse model; [5]) of 13447 ± 6633 U/L and an ALT (WD + CCL4 mouse model; [5]) of 19162 ± 4012 U/L. For the same molecule, the LDL-c (WD + CCL4 mouse model; [6]) was 0.37 ± 0.07 mmol/L, the TG (WD + CCL4 mouse model; [6]) was 1.2 ± 0.19 mmol/L and the HDL-c (WD + CCL4 mouse model; [6]) was 0.94 ± 0.25 mmol/L. For the same molecule, the TC (WD + CCL4 mouse model; [6]) was 2.2 ± 0.36 mmol/L, the CK activity (WD + CCL4 mouse model; [6]) was 201 ± 95 U/L and the AST (WD + CCL4 mouse model; [6]) was 4804 ± 1121 U/L. For the same molecule, the ALT (WD + CCL4 mouse model; [6]) was 10478 ± 2131 U/L, the LDL-c (WD + CCL4 mouse model; [7]) was 0.39 ± 0.11 mmol/L and the TG (WD + CCL4 mouse model; [7]) was 1.2 ± 0.18 mmol/L. The HDL-c (WD + CCL4 mouse model; [7]) was 1.2 ± 0.31 mmol/L, the TC (WD + CCL4 mouse model; [7]) was 2.4 ± 0.48 mmol/L and the CK activity (WD + CCL4 mouse model; [7]) was 280 ± 147 U/L. For the same molecule, the AST (WD + CCL4 mouse model; [7]) was 3660 ± 1208 U/L, the ALT (WD + CCL4 mouse model; [7]) was 7832 ± 2422 U/L and the “liver inflammation score (H and E)” value (WD + CCL4 mouse model; [8]) was “notable reduction”. For the same molecule, the “liver steatosis score (H and E)” value (WD + CCL4 mouse model; [8]) was “notable reduction”, the “liver ballooning score (H and E)” value (WD + CCL4 mouse model; WD + CCL4 mouse, 4 weeks, only low-dose CS27109 (3 mg/kg), vs model) was “significantly reduced liver ballooning” and the “area of liver fibrosis (sirius red)” value (WD + CCL4 mouse model; WD + CCL4 mouse, 4 weeks, three doses of CS27109 (3, 10, 30 mg/kg), MGL3196 10 mg/kg, vs model) was “prominently reduced the area of the fibrosis”. For the same molecule, the “L/B (liver/body weight ratio)” value (WD + CCL4 mouse model; WD + CCL4 mouse, 3 mg/kg (L) oral once a day 4 weeks) was 3.3 ± 0.40%, the “L/B (liver/body weight ratio)” value (WD + CCL4 mouse model; WD + CCL4 mouse, 10 mg/kg (CS27109-M, MGL-3196) oral once a day 4 weeks) was 3.2 ± 0.68% and the “L/B (liver/body weight ratio)” value (WD + CCL4 mouse model; WD + CCL4 mouse, 30 mg/kg (H) oral once a day 4 weeks) was 3.2 ± 0.79%. The “diarrhea in treated animals” value [1] was “rarely observed”.
